Assay results as given in ChEMBL document CHEMBL5052829, “Arf6 inhibitors and related methods” (2021).
Values belong to the compound of their own block, whether it stands above or below them. The source made the active and inactive calls. The rule behind the calls is not given here.

How the values were obtained:
[1] = Solubility in water; format: physicochemical
[2] = Clearance in Sprague-Dawley rats at 1.4 mg/kg, iv; format: ADME, organism-based; conditions: rat, in vivo
[3] = Volume of distribution in Sprague-Dawley rats at 1.4 mg/kg, iv; format: ADME, organism-based; conditions: rat, in vivo
[4] = Terminal half-life in Sprague-Dawley rats at 1.4 mg/kg, iv; format: ADME, organism-based; conditions: rat, in vivo, read-out: beta t1/2 (converted)
Mus musculus [5] = assay: Antiinflammatory activity in mouse model of LPS-induced acute lung injury assessed as reduction in total cell count in BALF at 64 mg/kg, iv; format: functional, organism-based
[6] = Toxicity in multidrug-resistant Pseudomonas aeruginosa infected mouse model of pneumonia assessed as improvement in animal survival at 64 mg/kg, sc administered once daily for 6 days; format: organism-based; conditions: in vivo, 144 h, time 6 day
Mus musculus [7] = assay: Antiinflammatory activity in mouse model of LPS-induced acute lung injury assessed as reduction in BALF protein at 64 mg/kg, iv; format: functional, organism-based
Mus musculus [8] = assay: Antiinflammatory activity in mouse model of LPS-induced acute lung injury assessed as reduction in total cell count in BALF at 38 mg/kg, iv; format: functional, organism-based
[9] = Toxicity in multidrug-resistant Pseudomonas aeruginosa infected mouse model of pneumonia assessed as improvement in animal survival at 38 mg/kg, sc administered once daily for 6 days; format: organism-based; conditions: in vivo, 144 h, time 6 day
Mus musculus [10] = assay: Antiinflammatory activity in mouse model of LPS-induced acute lung injury assessed as reduction in BALF protein at 38 mg/kg, iv; format: functional, organism-based
Mus musculus [11] = assay: Antiinflammatory activity in mouse model of LPS-induced acute lung injury assessed as reduction in BALF protein at 5 mg/kg, ip administered immediately or 6 hrs after LPS stimulation; format: functional; design: scale not given: the % may be the effect or the level left

solubility [1]: < 1 µM
Structure (SMILES): Cc1ccc(-c2c[nH]c3c(-c4ccc(Cl)cc4)c(Cc4ccccc4)nn3c2=O)c(O)c1

Structure (SMILES): O=c1c(-c2ccc(F)cc2OP(=O)([O-])[O-])c[nH]c2c(-c3ccc(Cl)cc3)c(Cc3ccccc3)nn12.[Na+].[Na+]
solubility [1]: > 50 µM

clearance [2]: 0.417 mL/min/kg
Vd [3]: 0.383 L/kg
half-life [4]: 10.9 h
Structure (SMILES): NCCCC[C@H](N)C(=O)Oc1cc([N+](=O)[O-])ccc1-c1cc(=O)[nH]c2c(-c3ccc(Cl)cc3)c(Cc3ccccc3)nn12

Structure (SMILES): Cc1ccc(-c2c[nH]c3c(-c4ccc(Cl)cc4)c(Cc4ccccc4)nn3c2=O)c(OP(=O)([O-])[O-])c1.[Na+].[Na+]
Activity (Mus musculus [5]): Active
Activity [6]: Non-Toxic
Activity (Mus musculus [7]): Active
solubility [1]: > 50 µM
Activity (Mus musculus [8]): Active
Activity [9]: Non-Toxic
Activity (Mus musculus [10]): Active

Structure (SMILES): C[C@@H]1C[C@H]2[C@@H]3CCC4=CC(=O)C=C[C@]4(C)[C@@]3(F)[C@@H](O)C[C@]2(C)[C@@]1(O)C(=O)CO [DEXAMETHASONE]
Activity (Mus musculus [11]): 37%

Structure (SMILES): Cc1ccc(-c2cc(=O)[nH]c3c(-c4ccc(Cl)cc4)c(Cc4ccccc4)nn23)c(OP(=O)([O-])[O-])c1.[Na+].[Na+]
solubility [1]: > 50 µM

Structure (SMILES): Cc1ccc(-c2cc(=O)[nH]c3c(-c4ccc(Cl)cc4)c(Cc4ccccc4)nn23)c(OP(=O)(O)O)c1
solubility [1]: > 50 µM
